Results from patent US20250179013A1, “INHIBITORS OF RNA HELICASE DHX9 AND USES THEREOF” (ACCENT THERAPEUTICS, INC., priority 2022, published 2025).

How the values were obtained:
[1] = target: T1, Human recombinant DHX9 protein (Homo sapiens, UniProt Q08211); assay: DHX9 ATPase assay (ADP-Glo biochemical assay); settings: for DHX9 Biochemical Max Inhibition: maximum inhibition in ATPase assay, 10 μM Aurintricarboxylic acid = 100%; for IC50: read-out: DHX9 Biochemical Inflection Point
T1 construct: purchased Viva

[2] = test system: DHX9 (circBRIP1 mRNA in HCT116 cells); assay: DHX9 circBRIP1 Cellular Target Engagement SYBR Green Assay; format: cell-based; settings: Homo sapiens, HCT-116, circBRIP1 qPCR, 72 hours

T1 sequence (Q08211 whole entry): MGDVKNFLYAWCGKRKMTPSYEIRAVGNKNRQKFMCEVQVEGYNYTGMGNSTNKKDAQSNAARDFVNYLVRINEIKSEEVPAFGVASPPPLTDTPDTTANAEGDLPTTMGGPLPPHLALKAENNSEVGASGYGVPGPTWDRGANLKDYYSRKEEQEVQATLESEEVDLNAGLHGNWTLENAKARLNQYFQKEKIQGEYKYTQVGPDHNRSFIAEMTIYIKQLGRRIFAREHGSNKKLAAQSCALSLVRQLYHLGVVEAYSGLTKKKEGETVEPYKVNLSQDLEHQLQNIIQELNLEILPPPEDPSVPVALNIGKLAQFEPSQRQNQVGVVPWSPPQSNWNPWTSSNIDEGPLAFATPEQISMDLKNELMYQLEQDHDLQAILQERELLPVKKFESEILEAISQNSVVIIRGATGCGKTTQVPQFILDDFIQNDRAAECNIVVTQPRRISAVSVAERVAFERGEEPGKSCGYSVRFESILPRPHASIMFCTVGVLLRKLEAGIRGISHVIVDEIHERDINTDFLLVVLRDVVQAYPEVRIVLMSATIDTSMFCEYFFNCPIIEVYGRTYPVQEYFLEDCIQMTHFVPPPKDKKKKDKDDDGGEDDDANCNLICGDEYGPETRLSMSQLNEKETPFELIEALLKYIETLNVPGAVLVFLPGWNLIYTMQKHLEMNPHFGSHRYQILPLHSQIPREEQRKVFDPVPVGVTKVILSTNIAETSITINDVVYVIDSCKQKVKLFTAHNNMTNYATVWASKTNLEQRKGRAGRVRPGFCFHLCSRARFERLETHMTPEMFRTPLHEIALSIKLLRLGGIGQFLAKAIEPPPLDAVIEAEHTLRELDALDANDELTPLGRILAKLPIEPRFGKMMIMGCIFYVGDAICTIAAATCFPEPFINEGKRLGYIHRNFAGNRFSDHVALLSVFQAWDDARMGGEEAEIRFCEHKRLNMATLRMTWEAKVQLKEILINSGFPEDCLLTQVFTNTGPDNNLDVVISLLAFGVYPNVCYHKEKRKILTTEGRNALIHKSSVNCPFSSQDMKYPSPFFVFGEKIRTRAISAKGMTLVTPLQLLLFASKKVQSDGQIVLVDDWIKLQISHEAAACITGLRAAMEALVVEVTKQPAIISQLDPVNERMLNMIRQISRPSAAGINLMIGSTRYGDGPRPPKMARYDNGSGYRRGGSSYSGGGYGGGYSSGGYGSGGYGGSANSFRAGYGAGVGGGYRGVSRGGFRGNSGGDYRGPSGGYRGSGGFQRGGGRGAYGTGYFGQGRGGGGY

CNC(=O)c1sc(C(=O)Nc2cccc(NS(C)(=O)=O)c2)cc1-c1ccccc1 [Example 152]
DHX9 Biochemical Max Inhibition [1]: 69.7% | IC50 [1]: 0.123 µM | EC50 [2]: 16.6 µM

CS(=O)(=O)Nc1cccc(NC(=O)c2cc(-c3ccccc3O)cs2)c1 [Example 57]
DHX9 Biochemical Max Inhibition [1]: 70.7% | IC50 [1]: 0.0419 µM | EC50 [2]: 25.3 µM

CC(=O)Nc1cccnc1-c1csc(C(=O)Nc2cccc(NS(C)(=O)=O)c2)c1 [Example 94]
DHX9 Biochemical Max Inhibition [1]: 71.2% | IC50 [1]: 0.125 µM | EC50 [2]: > 30 µM

CS(=O)(=O)Nc1cccc(NC(=O)c2cc(-c3c(O)cccc3F)cs2)c1 [Example 70]
DHX9 Biochemical Max Inhibition [1]: 71.2% | IC50 [1]: 0.0322 µM | EC50 [2]: 4.37 µM

CS(=O)(=O)Nc1cccc(NC(=O)c2cc(-c3ccccc3)c(CO)s2)c1 [Example 153, 5-(hydroxymethyl)-N-(3-(methylsulfonamido)phenyl)-4-phenylthiophene-2-carboxamide]
DHX9 Biochemical Max Inhibition [1]: 77.9% | IC50 [1]: 0.0432 µM | EC50 [2]: 5.91 µM

CS(=O)(=O)Nc1cccc(NC(=O)c2cc(-c3cccc(C(N)=O)c3)cs2)c1 [Example 50]
DHX9 Biochemical Max Inhibition [1]: 66.5% | IC50 [1]: 0.0458 µM | EC50 [2]: > 30 µM

CS(=O)(=O)Nc1cccc(NC(=O)c2cccc(-n3cccn3)c2)c1 [Example 40]
DHX9 Biochemical Max Inhibition [1]: 72.8% | IC50 [1]: 0.371 µM | EC50 [2]: > 30 µM

CS(=O)(=O)Nc1cccc(NC(=O)c2cc(-c3ncccc3O)cs2)c1 [Example 69]
DHX9 Biochemical Max Inhibition [1]: 75.6% | IC50 [1]: 0.0163 µM | EC50 [2]: 4.79 µM

Cc1cc(C)nc(-n2nc(C(=O)Nc3cccc(NS(C)(=O)=O)c3)cc2C)n1 [Example 15]
DHX9 Biochemical Max Inhibition [1]: 70.4% | IC50 [1]: 0.579 µM | EC50 [2]: > 30 µM

CS(=O)(=O)Nc1cccc(NC(=O)c2ccn(-c3c(F)cccc3F)n2)c1 [Example 12]
DHX9 Biochemical Max Inhibition [1]: 83.3% | IC50 [1]: 0.355 µM | EC50 [2]: > 30 µM

Cc1ncccc1-c1csc(C(=O)Nc2cccc(NS(C)(=O)=O)c2)c1 [Example 60]
DHX9 Biochemical Max Inhibition [1]: 69.2% | IC50 [1]: 0.0766 µM | EC50 [2]: 10.9 µM

CC(=O)c1ccc(S(=O)(=O)Nc2ccc(C(=O)Nc3cccc(NS(C)(=O)=O)c3)cc2)cc1 [Example 20]
DHX9 Biochemical Max Inhibition [1]: 72% | IC50 [1]: 0.664 µM | EC50 [2]: > 30 µM

CS(=O)(=O)Nc1cccc(NC(=O)c2cc(-c3ccccc3)c(C#N)s2)c1 [Example 100, 5-cyano-N-(3-(methylsulfonamido)phenyl)-4-phenylthiophene-2-carboxamide]
DHX9 Biochemical Max Inhibition [1]: 65.8% | IC50 [1]: 0.333 µM | EC50 [2]: 28.5 µM

CS(=O)(=O)Nc1cccc(NC(=O)c2cc(-c3cc(N)ccn3)cs2)c1 [Example 86]
DHX9 Biochemical Max Inhibition [1]: 71.1% | IC50 [1]: 0.0453 µM | EC50 [2]: 19.5 µM

CS(=O)(=O)Nc1cccc(NC(=O)c2cc(-c3ncccc3N)cs2)c1 [Example 89]
DHX9 Biochemical Max Inhibition [1]: 76.4% | IC50 [1]: 0.0097 µM | EC50 [2]: 1.03 µM

CC(=O)N1CCN(c2ccc(-c3csc(C(=O)Nc4cccc(NS(C)(=O)=O)c4)c3)nc2)CC1 [Example 95]
DHX9 Biochemical Max Inhibition [1]: 73.1% | IC50 [1]: 0.0076 µM | EC50 [2]: > 30 µM

CS(=O)(=O)Nc1cccc(NC(=O)c2cnn(-c3ccccc3)c2)c1 [Example 1]
DHX9 Biochemical Max Inhibition [1]: 71.6% | IC50 [1]: 0.339 µM | EC50 [2]: > 30 µM

CS(=O)(=O)Nc1cccc(NC(=O)c2csc(-c3nnc[nH]3)n2)c1 [Example 33]
DHX9 Biochemical Max Inhibition [1]: 65.4% | IC50 [1]: 1.02 µM | EC50 [2]: > 30 µM

CS(=O)(=O)Nc1cccc(NC(=O)c2cc(-c3cccnn3)cs2)c1 [Example 66]
DHX9 Biochemical Max Inhibition [1]: 71.3% | IC50 [1]: 0.0875 µM | EC50 [2]: > 30 µM

CS(=O)(=O)Nc1cccc(NC(=O)c2cc(-c3ccccc3)c(C(F)(F)F)s2)c1 [Example 99, N-(3-(methylsulfonamido)phenyl)-4-phenyl-5-(trifluoromethyl)thiophene-2-carboxamide]
DHX9 Biochemical Max Inhibition [1]: 35.8% | IC50 [1]: 0.716 µM | EC50 [2]: > 30 µM

CS(=O)(=O)Nc1cccc(NC(=O)c2cc(-c3cccc(N)n3)cs2)c1 [Example 85]
DHX9 Biochemical Max Inhibition [1]: 70.7% | IC50 [1]: 0.0195 µM | EC50 [2]: 1.39 µM

CS(=O)(=O)Nc1cccc(NC(=O)c2ccc(N3CCCC3)cc2)c1 [Example 31]
DHX9 Biochemical Max Inhibition [1]: 80.3% | IC50 [1]: 0.864 µM | EC50 [2]: > 30 µM

CS(=O)(=O)Nc1cccc(NC(=O)c2cc(-c3cc(C(=O)O)ccn3)cs2)c1 [Example 87]
DHX9 Biochemical Max Inhibition [1]: 77.2% | IC50 [1]: 0.0226 µM | EC50 [2]: ≥ 30 µM

CCS(=O)(=O)Nc1cccc(NC(=O)c2cc(-c3ccccc3)cs2)c1 [Example 96, N-(3-(ethylsulfonamido)phenyl)-4-phenylthiophene-2-carboxamide]
DHX9 Biochemical Max Inhibition [1]: 59.6% | IC50 [1]: 0.0899 µM | EC50 [2]: 22.2 µM

CS(=O)(=O)Nc1cccc(NC(=O)c2ccc(-c3ccccc3)s2)c1 [Example 5]
DHX9 Biochemical Max Inhibition [1]: 37.7% | IC50 [1]: 2.97 µM

CNC(=O)c1ccc(NC(=O)c2csc(C(=O)Nc3cccc(NS(C)(=O)=O)c3)c2)cc1 [Example 139]
DHX9 Biochemical Max Inhibition [1]: 68.9% | IC50 [1]: 0.0405 µM

CS(=O)(=O)Nc1cccc(NC(=O)c2cc(NCc3ccccc3)cs2)c1 [Example 155, 4-(benzylamino)-N-(3-(methylsulfonamido)phenyl)thiophene-2-carboxamide]
DHX9 Biochemical Max Inhibition [1]: 72.3% | IC50 [1]: 1.01 µM

Cc1cc(C(=O)Nc2cccc(NS(C)(=O)=O)c2)nn1Cc1ccccc1 [Example 154, 1-benzyl-N-(3-methanesulfonamidophenyl)-5-methyl-1H-pyrazole-3-carboxamide]
DHX9 Biochemical Max Inhibition [1]: 68.4% | IC50 [1]: 3.89 µM

CS(=O)(=O)Nc1cccc(NC(=O)c2ccc(C(=O)NC3CC3)cc2)c1 [Example 14]
DHX9 Biochemical Max Inhibition [1]: 70.4% | IC50 [1]: 5.09 µM

CS(=O)(=O)Nc1cccc(NC(=O)c2cc(Cc3ccccc3)cs2)c1 [Example 71]
DHX9 Biochemical Max Inhibition [1]: 66.5% | IC50 [1]: 1.86 µM

CS(=O)(=O)Nc1cccc(NC(=O)c2cc(C(=O)Nc3cccc4c3CCO4)cs2)c1 [Example 123]
DHX9 Biochemical Max Inhibition [1]: 68.3% | IC50 [1]: 0.0592 µM

CS(=O)(=O)Nc1cccc(NC(=O)c2cc(C(=O)NCCN3CCCCC3)cs2)c1 [Example 150]
DHX9 Biochemical Max Inhibition [1]: 68.6% | IC50 [1]: 0.102 µM

CS(=O)(=O)Nc1cccc(NC(=O)c2cc(C(=O)Nc3cnc4ccccn34)cs2)c1 [Example 129]
DHX9 Biochemical Max Inhibition [1]: 67.2% | IC50 [1]: 0.0889 µM

CS(=O)(=O)Nc1cccc(NC(=O)c2cc(C(=O)NCc3ccc(CN4CCOCC4)cc3)cs2)c1 [Example 124]
DHX9 Biochemical Max Inhibition [1]: 66.5% | IC50 [1]: 0.182 µM

Cc1ccc(C)n1-c1sccc1C(=O)Nc1cccc(NS(C)(=O)=O)c1 [Example 26]
DHX9 Biochemical Max Inhibition [1]: 60.6% | IC50 [1]: 56.9 µM

CS(=O)(=O)Nc1cccc(NC(=O)c2cc(C(=O)Nc3ccccc3CCO)cs2)c1 [Example 143]
DHX9 Biochemical Max Inhibition [1]: 73.3% | IC50 [1]: 0.0915 µM

CS(=O)(=O)Nc1cccc(NC(=O)c2cc(-c3ccccc3)ccn2)c1 [Example 2]
DHX9 Biochemical Max Inhibition [1]: 50.4% | IC50 [1]: 7.27 µM

CS(=O)(=O)Nc1cccc(NC(=O)c2cccc(OCc3ccccc3)c2)c1 [Example 4]
DHX9 Biochemical Max Inhibition [1]: 55.1% | IC50 [1]: 3.05 µM

CS(=O)(=O)Nc1cccc(NC(=O)c2cc(C(=O)Nc3cccc(OC(F)(F)F)c3)cs2)c1 [Example 120]
DHX9 Biochemical Max Inhibition [1]: 70.4% | IC50 [1]: 0.0505 µM

COc1ccc(NC(=O)c2csc(C(=O)Nc3cccc(NS(C)(=O)=O)c3)c2)cn1 [Example 106]
DHX9 Biochemical Max Inhibition [1]: 72.3% | IC50 [1]: 0.0679 µM

CS(=O)(=O)Nc1cccc(NC(=O)c2cc(C(=O)NCCc3cccnc3)cs2)c1 [Example 103]
DHX9 Biochemical Max Inhibition [1]: 71.7% | IC50 [1]: 0.126 µM

CS(=O)(=O)Nc1cccc(NC(=O)c2cc(-c3ccc(O)cc3)[nH]n2)c1 [Example 64]
DHX9 Biochemical Max Inhibition [1]: 78.1% | IC50 [1]: 0.589 µM

Cn1nc(C(=O)Nc2cccc(NS(C)(=O)=O)c2)cc1C1CCCC1 [Example 29]
DHX9 Biochemical Max Inhibition [1]: 81.3% | IC50 [1]: 1.43 µM

COc1cccc(-c2csc(C(=O)Nc3cccc(NS(C)(=O)=O)c3)c2)c1C [Example 67]
DHX9 Biochemical Max Inhibition [1]: 70.1% | IC50 [1]: 0.98 µM

CS(=O)(=O)Nc1cccc(NC(=O)c2cc(C(=O)NCCC3CC3)cs2)c1 [Example 162]
DHX9 Biochemical Max Inhibition [1]: 68.5% | IC50 [1]: 0.0811 µM

Cc1cc(NC(=O)c2csc(C(=O)Nc3cccc(NS(C)(=O)=O)c3)c2)ccc1Cl [Example 113]
DHX9 Biochemical Max Inhibition [1]: 59.7% | IC50 [1]: 0.515 µM

Cc1cc(C(=O)Nc2cccc(NS(C)(=O)=O)c2)nn1C1CCOCC1 [Example 17]
DHX9 Biochemical Max Inhibition [1]: 50.7% | IC50 [1]: 2.54 µM

Cc1ccccc1-c1nc(C(=O)Nc2cccc(NS(C)(=O)=O)c2)cs1 [Example 8]
DHX9 Biochemical Max Inhibition [1]: 47.7% | IC50 [1]: 1.76 µM

CS(=O)(=O)Nc1cccc(NC(=O)c2ccc(S(=O)(=O)Nc3ccncc3)cc2)c1 [Example 27]
DHX9 Biochemical Max Inhibition [1]: 63.8% | IC50 [1]: 1.61 µM

Cc1ccc(-c2csc(C(=O)Nc3cccc(NS(C)(=O)=O)c3)c2)cc1 [Example 48]
DHX9 Biochemical Max Inhibition [1]: 67.5% | IC50 [1]: 0.105 µM

CS(=O)(=O)Nc1cccc(NC(=O)c2ccc(-n3cccn3)cc2)c1 [Example 39]
DHX9 Biochemical Max Inhibition [1]: 55.3% | IC50 [1]: 0.994 µM

CS(=O)(=O)Nc1cccc(NC(=O)c2cc(-c3ccccc3)[nH]n2)c1 [Example 36]
DHX9 Biochemical Max Inhibition [1]: 56.3% | IC50 [1]: 1.86 µM

CS(=O)(=O)Nc1cccc(NC(=O)c2csc(N3CCCCC3)n2)c1 [Example 19]
DHX9 Biochemical Max Inhibition [1]: 49.6% | IC50 [1]: 6.33 µM

CS(=O)(=O)Nc1cccc(NC(=O)c2cc(C(=O)Nc3ccc(OCCN4CCOCC4)cc3)cs2)c1 [Example 122]
DHX9 Biochemical Max Inhibition [1]: 69.7% | IC50 [1]: 0.196 µM
